Measured values taken from US20250129021A1, “SMALL MOLECULE PROTEIN SYNTHESIS MODULATORS” (Interdict Bio, Inc., priority 2023, published 2025).

Tests used:
Type in all cases: biochemical
MYC = assay: In vitro transcription-translation (IVTT) assay, MYC reporter; conditions: IVTT assay, HeLa S3 lysate, MYC reporter, normalized sfGFP/mCherry ratio; half-log dilutions 30 μM-0.1 μM, 2 hrs at 30° C.
Method in brief: (§1)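 Reporter: mCherry, P2A, then 3×FLAG-target peptide-sfGFP fusion, IRES-initiated; HeLa S3 lysate IVTT; cpd dilutions 30 μM−0.1 μM half-log in 100% DMSO (dilution-plate conc); DNA added last; 2 h, 30° C; PBS quench.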

CCND1 = assay: In vitro transcription-translation (IVTT) assay, CCND1 reporter; conditions: IVTT, HeLa S3 lysate, 2 hrs at 30° C.
Method in brief: as §1

MCL-1 = assay: In vitro transcription-translation (IVTT) assay, MCL-1 reporter; conditions: IVTT, HeLa S3 lysate, 2 hrs at 30° C.; read-out: MCL1 IC50
Method in brief: as §1

CCNTB1 = assay: In vitro transcription-translation (IVTT) assay, CCNTB1 reporter; conditions: HeLa S3 lysate, 2 hrs at 30° C.
Method in brief: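 IC50 fitted from the sfGFP/mCherry fluorescence ratio, normalized to no-drug control after no-DNA background subtraction. Reactions ran 2 h at 30° C in HeLa S3 cell lysate with reporter plasmid DNA and half-log compound titrations (30 μM−0.1 μM, in DMSO).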

SMILES	IC50 (CCND1) [µM]	IC50 (MCL-1) [µM]	IC50 (CCNTB1) [µM]	IC50 (MYC) [µM]
CC(F)(F)c1ccc(C[C@H]2NC[C@H](O)[C@H]2OC(=O)NCc2cccc(F)c2)cc1 [V190547, (2R,3S,4S)-2-{[4-(1,1-difluoroethyl)phenyl]methyl}-4-hydroxypyrrolidin-3-yl N-[(3-fluorophenyl)methyl]carbamate]	20 to 30	< 10	< 10	< 10
O=C(NCC[C@@H]1CCCN1)O[C@@H]1[C@@H](O)CN[C@@H]1Cc1ccc(F)cc1 [V191886, (2R,3S,4S)-2-[(4-fluorophenyl)methyl]-4-hydroxypyrrolidin-3-yl N-{2-[(2S)-pyrrolidin-2-yl]ethyl}carbamate]	< 10	< 10	< 10	< 10
O=C(NCc1cccc(F)c1)O[C@@H]1[C@@H](O)CN[C@@H]1Cc1ccc(-n2ccnc2)cc1 [V190515, (2R,3S,4S)-4-hydroxy-2-{[4-(imidazol-1-yl)phenyl]methyl}pyrrolidin-3-yl N-[(3-fluorophenyl)methyl]carbamate]	< 10	< 10	< 10	< 10
COc1ccc(C[C@H]2NC[C@H](O)[C@H]2OC(=O)NCCC[C@H]2CCNC2)cc1 [V188340, (2R,3S,4S)-4-hydroxy-2-[(4-methoxyphenyl)methyl]pyrrolidin-3-yl N-{3-[(3S)-pyrrolidin-3-yl]propyl}carbamate]	10 to 20	< 10	< 10	< 10
O=C(NCc1ccccc1)O[C@@H]1[C@@H](O)CN[C@@H]1Cc1ccc(-c2c[nH]nn2)cc1 [V188331, (2R,3S,4S)-4-hydroxy-2-{[4-(1H−1,2,3-triazol-4-yl)phenyl]methyl}pyrrolidin-3-yl N-benzylcarbamate]	< 10	< 10	< 10	< 10
CCCOc1ccc(C[C@H]2NC[C@H](O)[C@H]2OC(=O)NCc2ccccc2)cc1 [V188376, (2R,3S,4S)-4-hydroxy-2-[(4-propoxyphenyl)methyl]pyrrolidin-3-yl N-benzylcarbamate]	10 to 20	< 10	< 10	< 10
CC(F)(F)c1ccc(C[C@H]2NC[C@H](O)[C@H]2OC(=O)NCC[C@@H]2CCCN2)cc1 [V191885, (2R,3S,4S)-2-{[4-(1,1-difluoroethyl)phenyl]methyl}-4-hydroxypyrrolidin-3-yl N-{2-[(2S)-pyrrolidin-2-yl]ethyl}carbamate]	10 to 20	< 10	< 10	< 10
COc1ccc(C[C@H]2NC[C@H](O)[C@H]2OC(=O)NCc2ccc(Cn3cccn3)cc2)cc1 [V188314, (2R,3S,4S)-4-hydroxy-2-[(4-methoxyphenyl)methyl]pyrrolidin-3-yl N-{[4-(pyrazol-1-ylmethyl)phenyl]methyl}carbamate]	< 10	< 10	< 10	< 10
COc1ccc(C[C@H]2NC[C@H](O)[C@H]2OC(=O)NCc2ccc(C3CCCN3)cc2)cc1 (stereo partly drawn) [V188355, (2R,3S,4S)-4-hydroxy-2-[(4-methoxyphenyl)methyl]pyrrolidin-3-yl N-{[4-(pyrrolidin-2-yl)phenyl]methyl}carbamate]	< 10	< 10	< 10	< 10
O=C(NCC1CC1)O[C@@H]1[C@@H](O)CN[C@@H]1Cc1ccc(-c2c[nH]nn2)cc1 [V188327, (2R,3S,4S)-4-hydroxy-2-{[4-(1H−1,2,3-triazol-4-yl)phenyl]methyl}pyrrolidin-3-yl N-(cyclopropylmethyl)carbamate]	< 10	< 10	< 10	< 10
O=C(NCc1cccc(F)c1)O[C@@H]1[C@@H](O)CN[C@@H]1Cc1ccc(-c2cscn2)cc1 [V190511, (2R,3S,4S)-4-hydroxy-2-{[4-(1,3-thiazol-4-yl)phenyl]methyl}pyrrolidin-3-yl N-[(3-fluorophenyl)methyl]carbamate]	< 10	< 10	< 10	< 10
O=C(NCC[C@@H]1CCCN1)O[C@@H]1[C@@H](O)CN[C@@H]1Cc1ccc(-c2ccc(C(F)(F)F)cc2)cc1 [V191963, (2R,3S,4S)-4-hydroxy-2-{[4′-(trifluoromethyl)-[1,1′-biphenyl]-4-yl]methyl}pyrrolidin-3-yl N-{2-[(2S)-pyrrolidin-2-yl]ethyl}carbamate]	> 30	20 to 30	20 to 30	> 30

Continued, in another order:

IC50 (CCND1) [µM]	IC50 (MCL-1) [µM]	IC50 (CCNTB1) [µM]	SMILES	IC50 (MYC) [µM]
10 to 20	10 to 20	< 10	COc1ccc(C[C@H]2NC[C@H](O)[C@H]2OC(=O)NCC23CC(C2)C3)cc1 [V188324, (2R,3S,4S)-4-hydroxy-2-[(4-methoxyphenyl)methyl]pyrrolidin-3-yl N-{bicyclo[1.1.1]pentan-1-ylmethyl}carbamate]	10 to 20
10 to 20	< 10	< 10	COc1ccc(C[C@H]2NC[C@H](O)[C@H]2OC(=O)NCc2ccccc2C#N)cc1 [V191911, (2R,3S,4S)-4-hydroxy-2-[(4-methoxyphenyl)methyl]pyrrolidin-3-yl N-[(2-cyanophenyl)methyl]carbamate]	< 10
> 30	> 30	20 to 30	COc1ccc(C[C@H]2NC[C@H](O)[C@H]2OC(=O)NCCc2c(C)noc2C)cc1 [V190414, (2R,3S,4S)-4-hydroxy-2-[(4-methoxyphenyl)methyl]pyrrolidin-3-yl N-[2-(3,5-dimethyl-1,2-oxazol-4-yl)ethyl]carbamate]	> 30
> 30	> 30	10 to 20	COc1ccc(C[C@H]2NC[C@H](O)[C@H]2OC(=O)NCC[C@@H]2CCCCN2)cc1 [V191902, (2R,3S,4S)-4-hydroxy-2-[(4-methoxyphenyl)methyl]pyrrolidin-3-yl N-{2-[(2S)-piperidin-2-yl]ethyl}carbamate]	10 to 20
< 10	< 10	< 10	COc1ccc(C[C@H]2NC[C@H](O)[C@H]2OC(=O)NCc2cccc(Cl)c2)cc1 [V191904, (2R,3S,4S)-4-hydroxy-2-[(4-methoxyphenyl)methyl]pyrrolidin-3-yl N-[(3-chlorophenyl)methyl]carbamate]	< 10
10 to 20	10 to 20	< 10	COc1ccc(C[C@H]2NC[C@H](O)[C@H]2OC(=O)NCC=C(C)C)cc1 [V190411, (2R,3S,4S)-4-hydroxy-2-[(4-methoxyphenyl)methyl]pyrrolidin-3-yl N-(3-methylbut-2-en-1-yl)carbamate]	10 to 20
< 10	< 10	< 10	COc1ccc(C[C@H]2NC[C@H](O)[C@H]2OC(=O)NCc2ccnc(F)c2)cc1 [V190522, (2R,3S,4S)-4-hydroxy-2-[(4-methoxyphenyl)methyl]pyrrolidin-3-yl N-[(2-fluoropyridin-4-yl)methyl]carbamate]	< 10
> 30	> 30	> 30	COc1ccc(C[C@H]2NC[C@H](O)[C@H]2OC(=O)NCC(=O)N[C@@H](C)C(=O)O)cc1 [V188019, (2S)-2-{2-[({[(2R,3S,4S)-4-hydroxy-2-[(4-methoxyphenyl)methyl]pyrrolidin-3-yl]oxy}carbonyl)amino]acetamido}propanoic acid]	10 to 20
< 10	< 10	< 10	COc1ccc(C[C@H]2NC[C@H](O)[C@H]2OC(=O)NCCc2ccc3c(c2)CNC3)cc1 [V188344, (2R,3S,4S)-4-hydroxy-2-[(4-methoxyphenyl)methyl]pyrrolidin-3-yl N-[2-(2,3-dihydro-1H-isoindol-5-yl)ethyl]carbamate]	< 10
< 10	< 10	< 10	COc1ccc(C[C@H]2NC[C@H](O)[C@H]2OC(=O)NCc2ccc(C#N)cc2)cc1 [V188377, (2R,3S,4S)-4-hydroxy-2-[(4-methoxyphenyl)methyl]pyrrolidin-3-yl N-[(4-cyanophenyl)methyl]carbamate]	< 10
> 30	20 to 30	10 to 20	COc1ccc(C[C@H]2NC[C@H](O)[C@H]2OC(=O)NCc2c(F)cccc2F)cc1 [V190521, (2R,3S,4S)-4-hydroxy-2-[(4-methoxyphenyl)methyl]pyrrolidin-3-yl N-[(2,6-difluorophenyl)methyl]carbamate]	20 to 30
